Here are results for 20 compounds from patent US20260285903A1, “SYNTHESIZED BIOLOGICALLY ACTIVE COMPOUNDS AND METHODS OF MAKING AND USING” (Georgia State University Research Foundation, Inc., priority 2023, published 2026).

Data set [1] in a line: Incubation with mouse intestinal microsomes (HPLC). The class given is in vitro ADME. The note with it: incubation for 30 minutes. From the text: The biopharmaceutical properties of the synthesized M13 (5-glutathione-6-shogaol) were characterized.
Another data set has as its system NF-κB signaling pathway. The experiment in a line: NF-κB-dependent luciferase activity in NF-κB/293/GFP-Luc cells treated with TNF-α. It is filed as cell-based. The note with it: for RLU (% with TNFα): MLY compounds; for RLU (% with TNFα) / reduction of NF-κB activation: TNF-α 10 ng/ml, 18 hours; for Activity compared with M13: Table 2B; for reduction of NF-κB activation / RLU (% with TNF-α), range: 20 µM; for IC50: TNF-α stimulated, FIG. 9, read-out: dose to reduce the NF-κB activation by 50%; for RLU (% with TNF-α), range: Table 2B bins, 1080 min. On the procedure: First, the anti-inflammatory activity of MLY compounds on the NF-κB signaling pathway was examined using the NF-xB/293/GFP-LucTnl cell line (System Biosciences). This cell line is specifically designed for use in quantitatively monitoring (by luciferase intensity) transcriptional activation related to the NF-κB signal transduction pathway in vitro. Treatment of NF-κB/293/GFP-Luc™ cells with 10 ng/ml TNF-α for 18 hours induced strong activation of the NF-κB signal transduction pathway (FIGS. 8A and 8B). […] MLY2 and MLY8 induced a strongest 90% reduction of NF-κB activation the anti-inflammatory effect of MLY 2 and 8 was dose-related (FIG. 9). The dose to reduce the NF-κB activation by 50% was […] for M13, 5 μM for MLY2 and 11 μM for MLY8 (FIG. 9).

Regarding `CCCCC/C=C/C(=O)CCc1ccc(O)c(OC)c1` [6-shogaol, reference compound], the “relative content retained of the input” value in data set [1] worked out at 61%.
Take `CCCCCC(CC(=O)CCc1ccc(O)c(OC)c1)SC[C@H](NC(=O)[C@@H](N)CCC(=O)O)C(=O)N[C@@H](C)C(=O)O` (stereo partly drawn) [MLY-1, Glu(alpha)-Cys(6-shogaol)-Ala]: in the data set on NF-κB signaling pathway, the “RLU (% with TNFα)” value is 30.3 ± 11.78% and the “Activity compared with M13” value was “>>M13 (15~35%)”.
Take `CCCCCC(CC(=O)CCc1ccc(O)c(OC)c1)SC[C@H](NC(=O)[C@@H](N)CCC(=O)O)C(=O)N[C@@H](CC(C)C)C(=O)O` (stereo partly drawn) [MLY-2, Glu(alpha)-Cys(6-shogaol)-Leu]: in the data set on NF-κB signaling pathway, the “RLU (% with TNFα)” value was 0.78 ± 0.54%, the “reduction of NF-κB activation” value was 90%, the IC50 turned out to be 5 µM and the “Activity compared with M13” value is given as “>>>>M13 (0~5%)”.
Turning to `CCCCCC(CC(=O)CCc1ccc(O)c(OC)c1)SC[C@H](NC(=O)[C@@H](N)CCC(=O)O)C(=O)N1CCC[C@H]1C(=O)O` (stereo partly drawn) [MLY-3, Glu(alpha)-Cys(6-shogaol)-Pro], in the data set on NF-κB signaling pathway, the “RLU (% with TNFα)” value stood at 6.54 ± 8.56% and the “Activity compared with M13” value is listed as “>M13 (35%~70%)”.
For `CCCCCC(CC(=O)CCc1ccc(O)c(OC)c1)SC[C@H](NC(=O)[C@@H](N)CCC(=O)O)C(=O)N[C@@H](Cc1c[nH]c2ccccc12)C(=O)O` (stereo partly drawn) [MLY-4, Glu(alpha)-Cys(6-shogaol)-Trp] the same measures were 80.65 ± 2.22% and “= M13 (70%~85%)”.
For `CCCCCC(CC(=O)CCc1ccc(O)c(OC)c1)SC[C@H](NC(=O)[C@@H](N)CCC(=O)O)C(=O)N[C@@H](Cc1ccc(O)cc1)C(=O)O` (stereo partly drawn) [MLY-5, Glu(alpha)-Cys(6-shogaol)-Tyr] the same measures were 67.18 ± 3.27% and “>M13 (35%~70%)”.
For the compound `CCCCCC(CC(=O)CCc1ccc(O)c(OC)c1)SC[C@H](NC(=O)[C@@H](N)CC(=O)O)C(=O)N[C@@H](Cc1ccccc1)C(=O)O` (stereo partly drawn) [MLY-6, Asp(alpha)-Cys(6-shogaol)-Phe], in the data set on NF-κB signaling pathway, the “RLU (% with TNFα)” value was 50.7 ± 1.38% and the “Activity compared with M13” value is “>M13 (35%~70%)”.
For `CCCCCC(CC(=O)CCc1ccc(O)c(OC)c1)SC[C@H](NC(=O)[C@@H](N)CC(=O)O)C(=O)N[C@@H](CC(C)C)C(=O)O` (stereo partly drawn) [MLY-7, Asp(alpha)-Cys(6-shogaol)-Leu] the same measures were 38.6 ± 3.96% and “>M13 (35%~70%)”.
As to `CCCCCC(CC(=O)CCc1ccc(O)c(OC)c1)SC[C@H](NC(=O)[C@@H](N)CC(=O)O)C(=O)N[C@@H](CCSC)C(=O)O` (stereo partly drawn) [MLY-8, Asp(alpha)-Cys(6-shogaol)-Met], in the data set on NF-κB signaling pathway, the “RLU (% with TNFα)” value is 8.04 ± 4.06%, the “reduction of NF-κB activation” value is 90%, the IC50 stood at 11 µM and the “Activity compared with M13” value is reported as “>>>M13 (5%~15%)”.
For `CCCCCC(CC(=O)CCc1ccc(O)c(OC)c1)SC[C@H](NC(=O)[C@@H](N)CC(=O)O)C(=O)N1CCC[C@H]1C(=O)O` (stereo partly drawn) [MLY-9, Asp(alpha)-Cys(6-shogaol)-Pro], in the data set with NF-κB signaling pathway, the “RLU (% with TNFα)” value is reported as 92.85 ± 2.15%; the “Activity compared with M13” value was “<M13 (>90%)”; the “RLU (% with TNF-α), range” value is recorded as more than 90%.
`CCCCCC(CC(=O)CCc1ccc(O)c(OC)c1)SC[C@H](NC(=O)[C@@H](N)CC(=O)O)C(=O)N[C@H](C(=O)O)C(C)C` (stereo partly drawn) [MLY-10, Asp(alpha)-Cys(6-shogaol)-Val]: in the data set with NF-κB signaling pathway, the “RLU (% with TNFα)” value amounted to 66.68 ± 11.06% and the “Activity compared with M13” value is given as “>M13 (35%~70%)”.
Regarding `CCCCCC(CC(=O)CCc1ccc(O)c(OC)c1)SC[C@H](NC(=O)[C@@H](N)CC(=O)O)C(=O)N[C@@H](Cc1c[nH]c2ccccc12)C(=O)O` (stereo partly drawn) [MLY-11, Asp(alpha)-Cys(6-shogaol)-Trp], in the data set with NF-κB signaling pathway, the “RLU (% with TNFα)” value is 24.75 ± 0.79% and the “Activity compared with M13” value is reported as “>>M13 (15~35%)”.
The corresponding values for `CCCCCC(CC(=O)CCc1ccc(O)c(OC)c1)SC[C@H](NC(=O)[C@@H](N)CC(=O)O)C(=O)N[C@@H](Cc1ccc(O)cc1)C(=O)O` (stereo partly drawn) [MLY-12, Asp(alpha)-Cys(6-shogaol)-Tyr] are 47.43 ± 5.5% and “>M13 (35%~70%)”.
The corresponding values for `CCCCCC(CC(=O)CCc1ccc(O)c(OC)c1)SC[C@H](NC(=O)[C@@H](N)CCC(=O)O)C(=O)N[C@@H](CCSC)C(=O)O` (stereo partly drawn) [MLY-13, Glu(alpha)-Cys(6-shogaol)-Met] are 60.22 ± 13.55% and “>M13 (35%~70%)”.
For `CCCCCC(CC(=O)CCc1ccc(O)c(OC)c1)SC[C@H](NC(=O)[C@@H](N)CC(=O)O)C(=O)N[C@H](C(=O)O)[C@@H](C)CC` (stereo partly drawn) [MLY-14, Asp(alpha)-Cys(6-shogaol)-Ile] the same measures were 80.67 ± 11.28% and “= M13 (70%~85%)”.
`CCCCCC(CC(=O)CCc1ccc(O)c(OC)c1)SC[C@H](NC(=O)[C@@H](N)CCC(=O)O)C(=O)N[C@@H](Cc1ccccc1)C(=O)O` (stereo partly drawn) [MLY-15, Glu(alpha)-Cys(6-shogaol)-Phe]: in the data set on NF-κB signaling pathway, the “RLU (% with TNFα)” value amounted to 47.98 ± 9.35% and the “Activity compared with M13” value is recorded as “>M13 (35%~70%)”.
In the case of `CCCCCC(CC(=O)CCc1ccc(O)c(OC)c1)SC[C@H](NC(=O)[C@@H](N)CCC(=O)O)C(=O)N[C@H](C(=O)O)[C@@H](C)CC` (stereo partly drawn) [MLY-16, Glu(alpha)-Cys(6-shogaol)-Ile], in the data set on NF-κB signaling pathway, the “RLU (% with TNFα)” value turned out to be 68.19 ± 4.46% and the “Activity compared with M13” value is on record as “>M13 (35%~70%)”.
Consider `CCCCCC(CC(=O)CCc1ccc(O)c(OC)c1)SC[C@H](NC(=O)[C@@H](N)CCC(=O)O)C(=O)N[C@H](C(=O)O)C(C)C` (stereo partly drawn) [MLY-17, Glu(alpha)-Cys(6-shogaol)-Val], for which, in the data set on NF-κB signaling pathway, the “RLU (% with TNFα)” value turned out to be 45.13 ±1.96% and the “Activity compared with M13” value is listed as “>M13 (35%~70%)”.
For the compound `CCCCCC(CC(=O)CCc1ccc(O)c(OC)c1)SC[C@H](NC(=O)[C@@H](N)CC(=O)O)C(=O)NCC(=O)O` (stereo partly drawn) [MLY-18, Asp(alpha)-Cys(6-shogaol)-Gly], in the data set on NF-κB signaling pathway, the “RLU (% with TNFα)” value amounted to 112.31 ± 7.28%; the “Activity compared with M13” value was “<M13 (>90%)”; the “RLU (% with TNF-α), range” value is listed as more than 90%.
Turning to `CCCCCC(CC(=O)CCc1ccc(O)c(OC)c1)SC[C@H](NC(=O)[C@@H](N)CC(=O)O)C(=O)N[C@@H](C)C(=O)O` (stereo partly drawn) [MLY-19, Asp(alpha)-Cys(6-shogaol)-Ala], in the data set with NF-κB signaling pathway, the “RLU (% with TNFα)” value is 67.04 ± 11.04% and the “Activity compared with M13” value is reported as “>M13 (35%~70%)”.
